Experimental data published in patent US12238268B2, “Imaging systems and methods” (priority 2012, dated 2025).
Positions of bridges follow the written chain, without caps; N, C: chain ends. Non-standard residues stand in square brackets, D forms with d. Residues, ends and D or L forms follow the SMILES beside them. *: point of attachment. X1 = CC1(C)C(/C=C/C=C/C=C/C=C2/N(CCC(=O)*)c3ccc4ccccc4c3C2(C)C)=[N+](CCC(=O)[O-])c2ccc3ccccc3c21

Experiments:
liver tumors = experiment: Goggle-aided fluorescence imaging of liver tumors, mice; assay type: in vivo; details: goggle device 102
Experimental: (§1) In another example, a multimodal detection technique was implemented in which goggle-aided fluorescence imaging (e.g., using goggle device 102 (shown in FIG. 1) and indocyanine green dye) was combined with ultrasound imaging and standard histology. Specifically, fluorescence imaging was used to detect liver tumors in mice and to perform liver resections on the tumors. […] Further, liver resection was performed on a rabbit using ultrasound, fluorescence imaging, and standard histology. […] The excised tissues were later examined by histopathology, and it was confirmed that the tumors were cancerous.

tumors = experiment: Goggle-aided fluorescence imaging and liver resection, rabbit; assay type: in vivo; details: fluorescence goggle system 100, confirmed by ultrasound and histopathology
Experimental: as §1

[1] = tested on: hepatocellular carcinoma (HCC); experiment: Goggle-aided fluorescence imaging of hepatocellular carcinoma in patients; assay type: in vivo; details: human patients
Excerpt: In another example, goggle device 102 (shown in FIG. 1) and indocyanine green dye were used to image hepatocellular carcinoma (HCC) in human patients. Both intravenous and transarterial hepatic (TAH) delivery of indocyanine green dye were used. […] Histologic validation was used to confirm HCC in the patients.

ABIR = ABIR (Homo sapiens, UniProt P05106+P06756); experiment: ABIR binding affinity; details: relative to reference cypate-labeled RGD peptide
Excerpt: (§2) An example of a tumor-targeted molecular probe is LS-301, which has the structure, Cypate-cyclo (D-Cys-Gly-Arg-Asp-Ser-Pro-Cys)-Lys-OH. The spectral properties of LS-301 are suitable for NIR imaging applications (e.g., excitation/emission 790/810 nm in 20% DMSO solution; fluorescence quantum yield (ψ) 0.1 referenced to ICG). […] In addition to conferring tumor selectivity on LS-301, the unnatural D-cysteine on the peptide moiety confers higher stability because of its resistance to degradation by proteases. This biological stability in serum allows initial imaging and potential follow-up surgery to be conducted within 48 hours before subsequent hydrolysis of the probe through L-amino acid residues.

[2] = Biological stability in serum; assay type: in vitro ADME; details: hydrolysis through L-amino acid residues
Excerpt: as §2

ABIR, sequence (P06756 31-889 limits assumed): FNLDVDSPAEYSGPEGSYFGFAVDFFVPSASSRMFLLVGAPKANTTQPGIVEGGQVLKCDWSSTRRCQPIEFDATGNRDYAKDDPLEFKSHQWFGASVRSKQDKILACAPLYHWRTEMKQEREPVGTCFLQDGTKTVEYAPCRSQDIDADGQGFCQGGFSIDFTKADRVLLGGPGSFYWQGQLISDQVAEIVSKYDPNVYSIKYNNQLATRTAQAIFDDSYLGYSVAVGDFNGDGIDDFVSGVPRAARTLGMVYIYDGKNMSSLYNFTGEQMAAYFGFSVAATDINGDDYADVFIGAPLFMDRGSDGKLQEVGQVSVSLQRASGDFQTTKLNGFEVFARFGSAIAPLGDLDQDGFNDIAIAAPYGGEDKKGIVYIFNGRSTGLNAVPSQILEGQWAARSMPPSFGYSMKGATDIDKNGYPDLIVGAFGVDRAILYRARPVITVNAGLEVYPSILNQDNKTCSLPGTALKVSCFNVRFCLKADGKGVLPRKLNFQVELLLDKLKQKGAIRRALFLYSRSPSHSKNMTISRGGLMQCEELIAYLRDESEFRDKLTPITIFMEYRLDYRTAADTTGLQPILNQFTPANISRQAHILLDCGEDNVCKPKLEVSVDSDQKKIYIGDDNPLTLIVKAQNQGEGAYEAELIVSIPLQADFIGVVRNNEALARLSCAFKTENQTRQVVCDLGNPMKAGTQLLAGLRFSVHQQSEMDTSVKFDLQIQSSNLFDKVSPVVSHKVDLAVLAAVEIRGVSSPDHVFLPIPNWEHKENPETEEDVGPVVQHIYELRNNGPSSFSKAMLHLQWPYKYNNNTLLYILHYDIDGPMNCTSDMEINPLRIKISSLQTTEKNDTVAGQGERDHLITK
ABIR, sequence (P06756 891-1048 partner limits assumed): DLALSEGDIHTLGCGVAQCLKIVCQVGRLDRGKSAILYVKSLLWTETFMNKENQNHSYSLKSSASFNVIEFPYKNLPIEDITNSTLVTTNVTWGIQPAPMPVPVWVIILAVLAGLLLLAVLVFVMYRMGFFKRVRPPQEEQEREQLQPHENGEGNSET
ABIR, sequence (P05106 27-788): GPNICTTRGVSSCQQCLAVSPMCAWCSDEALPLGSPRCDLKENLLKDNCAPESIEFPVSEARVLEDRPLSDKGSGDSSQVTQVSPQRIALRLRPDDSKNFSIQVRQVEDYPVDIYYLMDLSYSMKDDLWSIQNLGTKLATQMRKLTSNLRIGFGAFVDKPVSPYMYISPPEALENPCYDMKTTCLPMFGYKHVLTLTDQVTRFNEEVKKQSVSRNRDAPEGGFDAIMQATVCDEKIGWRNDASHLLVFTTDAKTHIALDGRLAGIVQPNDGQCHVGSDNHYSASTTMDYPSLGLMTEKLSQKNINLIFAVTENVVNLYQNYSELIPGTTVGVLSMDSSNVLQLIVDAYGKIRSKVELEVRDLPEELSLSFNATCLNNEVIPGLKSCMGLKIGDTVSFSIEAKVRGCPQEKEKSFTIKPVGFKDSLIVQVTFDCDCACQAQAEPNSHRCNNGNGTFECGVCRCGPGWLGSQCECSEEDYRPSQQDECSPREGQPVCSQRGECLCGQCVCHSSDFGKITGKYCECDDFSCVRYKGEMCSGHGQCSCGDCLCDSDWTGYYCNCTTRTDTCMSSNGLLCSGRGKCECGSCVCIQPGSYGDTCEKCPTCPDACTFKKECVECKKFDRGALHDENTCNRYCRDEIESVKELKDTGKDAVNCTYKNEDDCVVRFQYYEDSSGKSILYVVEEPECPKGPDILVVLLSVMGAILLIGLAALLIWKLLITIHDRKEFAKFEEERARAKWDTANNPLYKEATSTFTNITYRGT

CC1(C)C(/C=C/C=C/C=C/C=C2\N(CCCCS(=O)(=O)O)c3ccc4ccccc4c3C2(C)C)=[N+](CCCCS(=O)(=O)[O-])c2ccc3ccccc3c21 [indocyanine green dye, indocyanine green]
detection of liver tumors by fluorescence imaging (liver tumors): In addition to single tumors, scattered satellite lesions were also detected
observation of tumors by fluorescence imaging (tumors): observed in real-time
HCC-to-liver fluorescence contrast, TAH delivery instead of intravenous delivery ([1]; goggle device 102): significantly higher
detection of HCC tumors by fluorescence imaging ([1]; intravenous and transarterial hepatic (TAH) delivery): Primary tumors and satellite tumors were both detected

CC1(C)C(/C=C/C=C/C=C/C=C2/N(CCC(=O)N[C@@H]3CSSC[C@@H](C(=O)N[C@@H](CCCCN)C(=O)O)NC(=O)[C@@H]4CCCN4C(=O)[C@H](CO)NC(=O)[C@H](CC(=O)O)NC(=O)[C@H](CCCNC(=N)N)NC(=O)CNC3=O)c3ccc4ccccc4c3C2(C)C)=[N+](CCC(=O)[O-])c2ccc3ccccc3c21 [LS-301, Cypate-cyclo (D-Cys-Gly-Arg-Asp-Ser-Pro-Cys)-Lys-OH] (X1-[dC]GRDSPCK-OH; disulfide 1-7)
Ki (ABIR): 0.0262 ± 0.0004 µM
biological stability in serum: time for imaging and follow-up surgery before hydrolysis of the probe [2]: ≤ 48 hours
